This is an account of results in article PMC5537074 (Journal of medicinal chemistry, 2017).

In one data set the test system is PPARγ. The conditions noted are these: as compared to rosiglitazone; cited from earlier work.
In another data set the test system is T2DM patients. The note with it: cited from earlier work.
Another data set deals with rodents. The note with it: cited from earlier work.
Data set [1] concerns cultured cells (adipocyte differentiation). The conditions noted are these: cultured cells treated with compound; cited from earlier work.
For data set [2], the target named is T1, human GAL4-PPARγ-Hinge-LBD (Homo sapiens, UniProt P37231).
T1 sequence (P37231 238-503 limits assumed): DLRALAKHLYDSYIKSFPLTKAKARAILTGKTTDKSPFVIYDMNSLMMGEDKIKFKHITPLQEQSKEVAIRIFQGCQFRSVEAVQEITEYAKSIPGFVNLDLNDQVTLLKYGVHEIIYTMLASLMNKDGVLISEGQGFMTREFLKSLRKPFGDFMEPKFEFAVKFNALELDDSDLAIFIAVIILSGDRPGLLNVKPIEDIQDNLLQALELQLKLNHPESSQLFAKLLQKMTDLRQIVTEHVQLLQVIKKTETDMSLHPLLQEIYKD
Nature of the data set: Transactivation assay. It is filed as cell-based. The note with it: HEK293T cells, GAL4-PPARγ-Hinge-LBD / UAS-luciferase, 18 h incubation, doses 169 pM to 10 μM.

`O=S(=O)(Nc1cc(Cl)c(Oc2cnc3ccccc3c2)c(Cl)c1)c1ccc(Cl)cc1Cl` [Compound 1, 2,4-dichloro-N-(3,5-dichloro-4-(quinolin-3-yloxy)phenyl)benzenesulfonamide]: the “maximal transcriptional activation of reporter genes” value in the data set with PPARγ is reported as “approximately 30%”. Moreover, the “pharmacokinetic and pharmacodynamic properties” value in the data set on T2DM patients (Phase 1 studies (4 studies)) was “favorable pharmacokinetic and pharmacodynamic properties”. Moreover, the tolerability entry with T2DM patients (Phase 2a, multicenter, double blind, placebo controlled, T2DM patients) is given as “generally well tolerated”. In the data set on rodents (0.3 mg/kg dose), the “lowers blood glucose levels” value was “over 30%”. The “total weight gain, heart weight gain, lung weight gain” value in the data set on rodents (compared with rosiglitazone administration) was “less total weight gain, heart weight gain, and lung weight gain”. In addition, the Adipocyte differentiation entry in data set [1] is listed as “not enhanced”.
Regarding “N-(3,5-dichloro-4-(quinolin-3-yloxy)phenyl)-thiophene-2-carboxamide [Compound 7]”, in data set [2], the “EC50 (nM) n=3” value was “no activity”.
As to `CN(CCOc1ccc(CC2SC(=O)NC2=O)cc1)c1ccccn1` (stereo not drawn) [rosiglitazone], in data set [1], the Adipocyte differentiation result is “significant induction”.
With `O=S(=O)(Nc1cc(Cl)c(Oc2cnc3ccccc3c2)c(Cl)c1)c1cccs1` [Compound 15, N-(3,5-dichloro-4-(quinolin-3-yloxy)phenyl)thiophene-2-sulfonamide], the “EC50 (nM) n=3” value in data set [2] is “no activity”.
